This is an account of results in patent US20260216362A1, “ANTI-BDCA2 ANTIBODY-DRUG CONJUGATE AND USE THEREOF” (DUALITY BIOLOGICS (SHANGHAI) CO., LTD., priority 2022, published 2026).

The assay has as its system human peripheral blood mononuclear cells. Put plainly: Inhibition of R848-induced TNF-α production from human peripheral blood mononuclear cells by BDCA2-ADC. To be noted: 5 μM R848, 24 h. It is filed as cell-based. The protocol:
The inhibitory effects of the antibody-drug conjugate molecules of the present application on the production from peripheral blood mononuclear cells were detected. Peripheral blood mononuclear cells produce a large number of cytokines after the stimulation of the TLR7/8 agonist R848. The peripheral blood mononuclear cells were treated in vitro with the BDCA2 antibody-drug conjugate at different concentrations, and IFNα and TNFα produced by the peripheral blood mononuclear cells were quantitatively detected after the stimulation of 5 μM R848 for a certain period of time. The in vitro activity of the ligand-drug conjugates was evaluated based on the extent of cytokine inhibition.
The cryopreserved human peripheral blood mononuclear cells were thawed, resuspended in a complete culture medium and counted, and the cell suspension was adjusted to 2.5×10^6 cells/mL with the culture medium and cultured overnight. […] The supernatant was collected, and the TNF-α and IFN-α concentration levels in the supernatant were detected using an ELISA kit. Dose-response data were fitted to an S-shaped curve using non-linear regression, and IC50 values were calculated.
TNF-α concentration assay was performed using a Dakewe TNF-α ELISA kit (Cat. No. 1117202). […] The reading at wavelength 450 nm was detected using an M2e instrument within 10 min after the termination. […]

“BIIB059: reference antibody specifically binding to BDCA2, sequence derived from U.S. Pat. No. 9,902,775B2; SEQ ID NO: 25 and 26 [reference compound]”: the “inhibitory effect on TNF-α secretion” value was “did not have an inhibitory effect”.
